# Laboratory results: US8476197B2, “Aminopropenoates as fungicides” (priority 2009, dated 2013)
# Like-named read-outs stand apart in the source and are kept apart here. Marks after values point to notes of the source that are not given here.
compound,measurement,setting,value
C=CCCCC(C=C)NC(=C(C#N)C(=O)OCC)c1sccc1Cl (centres unmarked) [Compound 1023],Log P,pH 2.7,4.65^[a]
C=CCCCC(C=C)NC(=C(C#N)C(=O)OCC)c1ccsc1I (centres unmarked) [Compound 1024],Log P,pH 2.7,4.65^[a]
CCC#CC(C)(C)NC(=C(C#N)C(=O)OC)c1cccnc1Cl [Compound 1025],Log P,pH 2.7,2.98^[a]
C#CC(C)(C)NC(=C(C#N)C(=O)OCC)c1sccc1Br [Compound 1027],Log P,pH 2.7,3.42^[a]
C#CC(C)(C)NC(=C(C#N)C(=O)OCC)c1ccsc1Br [Compound 1029],Log P,pH 2.7,3.42^[a]
C#CC(C)(C)NC(=C(C#N)C(=O)OCC)c1conc1C [Compound 1030],Log P,pH 2.7,2.66^[a]
C#CC(C)(C)NC(=C(C#N)C(=O)OCC)c1cn(C)nc1C(F)(F)F [Compound 1031],Log P,pH 2.7,3.02^[a]
C#CC(C)(C)NC(=C(C#N)C(=O)OCC)c1sccc1Cl [Compound 1032],Log P,pH 2.7,3.41^[a]
C#CC(C)(C)NC(=C(C#N)C(=O)OCC)c1cc(Cl)sc1Cl [Compound 1033],Log P,pH 2.7,3.99^[a]
C#CC(C)(C)NC(=C(C#N)C(=O)OCC)c1cn(C)nc1OC [Compound 1034],Log P,pH 2.7,2.44^[a]
C#CC(C)(C)NC(=C(C#N)C(=O)OCC)c1cn(C)nc1C=C [Compound 1035],Log P,pH 2.7,2.54^[a]
C#CC(C)(C)NC(=C(C#N)C(=O)OCC)c1sc(Cl)nc1Cl [Compound 1036],Log P,pH 2.7,3.61^[a]
C#CC(C)(C)NC(=C(C#N)C(=O)OCC)c1cn(C)cc1C(F)(F)F [Compound 1038],Log P,pH 2.7,3.21^[a]
CC#CC(C)(C)NC(=C(C#N)C(=O)OC)c1cccnc1Cl [Compound 1039],Log P,pH 2.7,2.57^[a]
CC#CC(C)(C)NC(=C(C#N)C(=O)OCC)c1sccc1C(F)(F)F [Compound 1040],Log P,pH 2.7,3.92^[a]
CC#CC(C)(C)NC(=C(C#N)C(=O)OCC)c1sccc1Br [Compound 1041],Log P,pH 2.7,3.85^[a]
CC#CC(C)(C)NC(=C(C#N)C(=O)OC)c1sc(C)nc1C(F)(F)F [Compound 1042],Log P,pH 2.7,3.35^[a]
CC#CC(C)(C)NC(=C(C#N)C(=O)OCC)c1cn(C)nc1C(F)F [Compound 1043],Log P,pH 2.7,2.9^[a]
C#CCNC(=C(C#N)C(=O)OCC)c1cccnc1Cl [Compound 1044],Log P,pH 2.3,2.18
same,Log P,pH 7.5,2.05
C#CC(C)NC(=C(C#N)C(=O)OC)c1cccnc1Cl (centres unmarked) [Compound 1045],Log P,pH 2.7,2.14^[a]
C#CC(C)NC(=C(C#N)C(=O)OCC)c1sccc1C(F)(F)F (centres unmarked) [Compound 1046],Log P,pH 2.7,3.25^[a]
C#CC(C)NC(=C(C#N)C(=O)OCC)c1sccc1Br (centres unmarked) [Compound 1047],Log P,pH 2.7,3.17^[a]
C#CC(C)NC(=C(C#N)C(=O)OC)c1sc(C)nc1C(F)(F)F (centres unmarked) [Compound 1048],Log P,pH 2.7,2.73^[a]
C#CC(C)NC(=C(C#N)C(=O)OCC)c1cn(C)nc1C(F)F (centres unmarked) [Compound 1049],Log P,pH 2.7,2.44^[a]
C#CC(C)NC(=C(C#N)C(=O)OCC)c1sc(C)nc1C(F)(F)F (centres unmarked) [Compound 1050],Log P,pH 2.7,3.06^[a]
CC#CC(C)NC(=C(C#N)C(=O)OC)c1cccnc1Cl (centres unmarked) [Compound 1051],Log P,pH 2.7,2.5^[a]
CC#CC(C)NC(=C(C#N)C(=O)OCC)c1cccnc1Cl (centres unmarked) [Compound 1052],Log P,pH 2.7,2.86^[a]
CCOC(=O)C(C#N)=C(NC1CC1C(F)(F)F)c1cccnc1Cl (centres unmarked) [Compound 1054],Log P,pH 2.7,2.9^[a]
CCOC(=O)C(C#N)=C(NC1CC1(C)C)c1cccnc1Cl (centres unmarked) [Compound 1055],Log P,pH 2.7,3.25^[a]
COC(=O)C(C#N)=C(NC1CC(C)CCC1C)c1cccnc1Cl (centres unmarked) [Compound 1057],Log P,pH 2.7,3.73^[a]
COC(=O)C(C#N)=C(NC1C(C)CCCC1C)c1cccnc1Cl (centres unmarked) [Compound 1058],Log P,pH 2.7,3.63^[a]
CCOC1CCCC1NC(=C(C#N)C(=O)OC)c1cccnc1Cl (centres unmarked) [Compound 1059],Log P,pH 2.7,2.93^[a]
CCC1CCCC(C)C1NC(=C(C#N)C(=O)OC)c1cccnc1Cl (centres unmarked) [Compound 1060],Log P,pH 2.7,3.99^[a]
CCC1CCCCC1NC(=C(C#N)C(=O)OC)c1cccnc1Cl (centres unmarked) [Compound 1061],Log P,pH 2.7,3.63^[a]
CCOC(=O)C(C#N)=C(NC1CC1CC)c1cccnc1Cl (centres unmarked) [Compound 1062],Log P,pH 2.7,3.27^[a]
C#CC1CCCCC1NC(=C(C#N)C(=O)OC)c1cccnc1Cl (centres unmarked) [Compound 1063],Log P,pH 2.7,2.99^[a]
CCOC(=O)C(C#N)=C(NC1CCC1C)c1cccnc1Cl (centres unmarked) [Compound 1065],Log P,pH 2.7,3.37^[a]
CCOC(=O)C(C#N)=C(NC1CCCCC1C)c1cccnc1Cl (centres unmarked) [Compound 1066],Log P,pH 2.3,3.84
same,Log P,pH 7.5,3.7
CCOC(=O)C(C#N)=C(NC1CC1C)c1cccnc1Cl (centres unmarked) [Compound 1067],Log P,pH 2.7,2.86^[a]
CCOC(=O)C(C#N)=C(NC1CC1c1ccccc1)c1cccnc1Cl (centres unmarked) [Compound 1068],Log P,pH 2.7,3.44^[a]
COC(=O)C(C#N)=C(NC1CCCC(C(F)(F)F)C1)c1cccnc1Cl (centres unmarked) [Compound 1069],Log P,pH 2.7,3.09^[a]
COC(=O)C(C#N)=C(NC1CCC(C)C(C)C1)c1cccnc1Cl (centres unmarked) [Compound 1070],Log P,pH 2.7,3.73^[a]
